Data taken from the supplement of paper PMC10307832.

Tests used:
Test in all cases: relative viability (nuclei count vs DMSO), 5 days (fraction); higher = more cells survive
[1] = compound: C1/C(=C\C2=CC=CS2)/C(=O)/C(=C/C3=CC=CS3)/C1 + O=C(c1cc(Cc2n[nH]c(=O)c3ccccc23)ccc1F)N1CCN(C(=O)C2CC2)CC1 [Olaparib] (partner 8 µM)
Procedure, shortened: (§1)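 Values are medians from duplicate plates. Each reflects relative viability, defined as the nuclei count of treated wells over that of vehicle wells. Lung cancer cell lines in 1536-well plates were pin-tool dosed one day after seeding with one drug alone or with a fixed anchor-drug dose plus five library-drug doses (not always all listed) in √10 steps, then fixed, stained and imaged at 4× after 5 days.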

TPCA-1 + Phenformin = compound: C1=CC(=CC=C1C2=CC(=C(S2)NC(=O)N)C(=O)N)F [TPCA-1] + N=C(N)NC(=N)NCCc1ccccc1 [Phenformin] (partner 250 µM)
Procedure, shortened: as §1

TPCA-1 + Pemetrexed = compound: C1=CC(=CC=C1C2=CC(=C(S2)NC(=O)N)C(=O)N)F [TPCA-1] + Nc1nc2[nH]cc(CCc3ccc(C(=O)N[C@@H](CCC(=O)O)C(=O)O)cc3)c2c(=O)[nH]1 [Pemetrexed] (partner 0.2 µM)
Procedure, shortened: as §1

TPCA-1 + Olaparib = compound: C1=CC(=CC=C1C2=CC(=C(S2)NC(=O)N)C(=O)N)F [TPCA-1] + O=C(c1cc(Cc2n[nH]c(=O)c3ccccc23)ccc1F)N1CCN(C(=O)C2CC2)CC1 [Olaparib] (partner 8 µM)
Procedure, shortened: as §1

Cell Line | relative viability ([1]; first compound 0.2 µM) | relative viability ([1]; first compound 0.6325 µM) | relative viability ([1]; first compound 2 µM) | relative viability ([1]; first compound 6.325 µM) | relative viability ([1]; first compound 20 µM) | relative viability (TPCA-1 + Phenformin; first compound 0.04 µM) | relative viability (TPCA-1 + Phenformin; first compound 0.1265 µM) | relative viability (TPCA-1 + Phenformin; first compound 0.4 µM) | relative viability (TPCA-1 + Phenformin; first compound 1.265 µM) | relative viability (TPCA-1 + Phenformin; first compound 4 µM) | relative viability (TPCA-1 + Pemetrexed; first compound 0.04 µM) | relative viability (TPCA-1 + Pemetrexed; first compound 0.1265 µM) | relative viability (TPCA-1 + Pemetrexed; first compound 0.4 µM) | relative viability (TPCA-1 + Pemetrexed; first compound 1.265 µM) | relative viability (TPCA-1 + Pemetrexed; first compound 4 µM) | relative viability (TPCA-1 + Olaparib; first compound 0.04 µM) | relative viability (TPCA-1 + Olaparib; first compound 0.1265 µM) | relative viability (TPCA-1 + Olaparib; first compound 0.4 µM) | relative viability (TPCA-1 + Olaparib; first compound 1.265 µM) | relative viability (TPCA-1 + Olaparib; first compound 4 µM)
LU99A | 0.225 | 0.255 | 0.279 | 0.222 | 0.234 | 0.989 | 0.82 | 0.835 | 0.646 | 0.603 | 0.17 | 0.162 | 0.196 | 0.167 | 0.198 | 0.257 | 0.277 | 0.293 | 0.223 | 0.168
NCI-H1437 | 0.667 | 0.618 | 0.634 | 0.563 | 0.617 | 0.336 | 0.297 | 0.277 | 0.297 | 0.299 | 0.318 | 0.326 | 0.318 | 0.302 | 0.298 | 0.665 | 0.637 | 0.611 | 0.591 | 0.618
EKVX | 0.884 | 0.734 | 0.951 | – | 0.821 | 0.215 | 0.22 | 0.252 | 0.198 | 0.125 | 0.43 | – | 0.343 | 0.329 | 0.375 | 0.963 | – | 0.837 | 0.568 | 0.727
NCI-H520 | 0.316 | 0.34 | 0.324 | – | 0.35 | 0.872 | 0.473 | 0.844 | 0.579 | 0.177 | 0.779 | 0.727 | 0.737 | 0.578 | 0.608 | 0.409 | 0.353 | 0.391 | 0.373 | 0.344
LCLC-97TM1 | 0.459 | 0.389 | 0.344 | 0.275 | 0.347 | 0.44 | 0.394 | 0.414 | 0.294 | 0.386 | 0.17 | 0.186 | 0.163 | 0.153 | 0.154 | 0.301 | 0.237 | 0.374 | 0.346 | 0.216
NCI-H2170 | 0.619 | 0.645 | 0.595 | 0.422 | 0.536 | 0.478 | 0.401 | 0.424 | 0.402 | 0.362 | 0.273 | 0.34 | 0.288 | 0.28 | 0.265 | 0.668 | 0.568 | 0.65 | 0.508 | 0.439
NCI-H1793 | 0.904 | 0.931 | 0.978 | 0.782 | 0.893 | 0.364 | – | 0.297 | 0.402 | 0.261 | 0.97 | 0.709 | 0.921 | 0.963 | 0.249 | 0.982 | 0.735 | 1.1 | 0.821 | 0.546
NCI-H3122 | 0.655 | 0.645 | 0.648 | 0.537 | 0.578 | 0.383 | 0.401 | 0.409 | 0.374 | 0.404 | 0.203 | 0.23 | 0.222 | 0.191 | 0.19 | 0.627 | 0.605 | 0.594 | 0.588 | 0.439
PC-14 | 0.289 | 0.28 | 0.239 | 0.192 | 0.31 | 0.575 | 0.492 | 0.717 | 0.508 | 0.568 | 0.136 | 0.128 | 0.133 | 0.134 | 0.138 | 0.295 | 0.324 | 0.308 | 0.327 | 0.341
EPLC-272H | 0.858 | 0.907 | 0.627 | 0.506 | 0.579 | 0.343 | 0.391 | 0.292 | 0.289 | 0.272 | 0.287 | 0.331 | 0.371 | 0.359 | 0.266 | 0.992 | 0.709 | 0.839 | 0.455 | 0.372
A-427 | 0.802 | 0.797 | 0.762 | 0.467 | 0.786 | 0.423 | 0.283 | 0.371 | 0.19 | 0.145 | 1.01 | 0.918 | 1.11 | 1.05 | 0.388 | 0.818 | 0.686 | 0.778 | 0.777 | 0.65
